Entries after “also recorded” stand apart in the source; their conditions may differ. Like-named read-outs stand apart in the source and are kept apart here. Blank lines part the entries; values can stand above or below the molecule they belong to.
What was measured:
[1] = biological target: T1, PPAR-γ (Homo sapiens, UniProt P37231); assay: PPAR-γ ligand receptor binding; settings: initial results
T1 sequence (P37231 1-505): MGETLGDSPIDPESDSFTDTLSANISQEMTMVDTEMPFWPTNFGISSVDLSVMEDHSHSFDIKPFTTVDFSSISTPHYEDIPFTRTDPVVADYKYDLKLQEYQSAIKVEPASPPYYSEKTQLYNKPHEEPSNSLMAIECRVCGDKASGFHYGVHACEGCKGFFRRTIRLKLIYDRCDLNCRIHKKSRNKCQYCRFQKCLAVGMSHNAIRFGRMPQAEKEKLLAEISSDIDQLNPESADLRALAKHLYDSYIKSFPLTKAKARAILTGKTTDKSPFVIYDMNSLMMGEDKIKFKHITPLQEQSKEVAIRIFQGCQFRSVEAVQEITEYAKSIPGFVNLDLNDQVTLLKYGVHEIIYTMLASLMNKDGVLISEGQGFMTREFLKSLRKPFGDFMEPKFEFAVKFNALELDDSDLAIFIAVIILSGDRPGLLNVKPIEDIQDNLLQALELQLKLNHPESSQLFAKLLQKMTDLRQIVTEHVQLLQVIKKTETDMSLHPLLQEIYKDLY

[2] = tested on: db/db mice; assay: Oral (in-feed) efficacy in db/db mice, genetic model of type II diabetes; format: in vivo, mouse
Experimental: An in-feed study in this genetic model of type II diabetes was performed. […] The compound of formula VI and Troglitazone® were studied in a genetic model of diabetes (db/db mice). A total of 70 female db/db mice (C57Bl/Ks db+/+; Jackson Labs, Maine), 3 months of age, received either meal chow only (rodent chow # 5001), 50 or 150 mg/kg/day of the compound of formula VI and 50 or 150 mg/kg/day of Troglitazone® mixed with the food. Six animals were sacrificed on Day 0 to obtain baseline values, the remaining 64 animals were randomly distributed into 5 groups. On days 0, 8, 12 and 16 whole blood samples were taken via the tail vein and blood glucose was determined (in duplicate) using the One Touch® gluco-meter. On Day 16, animals were anesthetized using pentobarbital, blood was drawn into EDTA tubes and the following organs were removed: heart, liver, brain, white and brown adipose tissue and the tibia. Plasma was prepared and kept frozen until samples were analyzed for glucose, free fatty acids, insulin and triglycerides. [table] Plasma was analyzed for glucose, triglycerides, free fatty acids and insulin. The latter two methods were slightly modified to use smaller amounts of plasma. Glucose Analysis. Plasma glucose was measured with a Sigma Chemicals Diagnostic kit (#315-500). Triglyceride Analysis. Plasma triglycerides was measured with a Sigma Chemicals Diagnostic kit (#339-500P). Insulin Analysis. Plasma insulin was measured using a radioimmunoassay (RIA) kit from Linco Research Inc. (#RI-13K). This kit was modified slightly using 10 μl of plasma. This kit utilizes an antibody made specifically against rat insulin. The cross-reactivity of this antibody with mouse insulin is 100 percent. Free Fatty Acid Analysis. Plasma free fatty acids were measured using a kit obtained from Wako Chemicals Inc. (NEFA-C; #994-75409). This kit utilizes an in vitro enzymatic colorimetric method for the quantitation of non-esterified fatty acids in serum or plasma. This method relies upon the acylation of coenzyme A by the fatty acids in the presence of added acyl-CoA synthetase. This method was modified slightly to utilize 5 μl of plasma and was performed in a 96-well format (M. Johnson & J. Peters, J. Animal Science 71:753-756, 1993).

[3] = biological target: T2, LTD4 receptor (Homo sapiens, UniProt Q9Y271); assay: LTD4 receptor binding in THP-1 cells; settings: for Kb: THP-1 cells, read-out: LTD4 Binding (Kb for binding of compound to the LTD4 receptor)
T2 construct: endogenous in cells
T2 sequence (Q9Y271 1-337): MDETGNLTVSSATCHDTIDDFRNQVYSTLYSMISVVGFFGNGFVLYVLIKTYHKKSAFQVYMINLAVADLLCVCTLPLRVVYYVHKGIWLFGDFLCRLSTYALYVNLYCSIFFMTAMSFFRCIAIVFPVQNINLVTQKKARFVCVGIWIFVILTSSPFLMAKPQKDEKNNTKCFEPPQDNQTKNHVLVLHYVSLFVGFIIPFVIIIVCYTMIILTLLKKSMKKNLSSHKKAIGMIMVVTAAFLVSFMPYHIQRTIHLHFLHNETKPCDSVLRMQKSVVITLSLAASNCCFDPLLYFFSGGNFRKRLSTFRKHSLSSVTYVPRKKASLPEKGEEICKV

[4] = biological target: T3, LTD4 receptor (Cavia porcellus, UniProt Q2NNR5); assay: LTD4 binding, guinea pig receptor; settings: read-out: Kd, antagonist of the guinea pig LTD4 receptor
T3 sequence (Q2NNR5 1-340): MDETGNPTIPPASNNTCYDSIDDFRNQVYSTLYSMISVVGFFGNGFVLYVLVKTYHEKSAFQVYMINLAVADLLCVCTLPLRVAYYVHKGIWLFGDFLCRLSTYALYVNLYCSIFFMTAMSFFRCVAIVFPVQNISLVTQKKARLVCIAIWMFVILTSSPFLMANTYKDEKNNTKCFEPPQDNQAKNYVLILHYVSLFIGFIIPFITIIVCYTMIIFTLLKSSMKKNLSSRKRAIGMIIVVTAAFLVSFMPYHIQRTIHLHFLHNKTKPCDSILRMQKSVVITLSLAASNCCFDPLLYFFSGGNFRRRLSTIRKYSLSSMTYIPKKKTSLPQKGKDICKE

[5] = tested on: human preadipocytes; assay: Adipocyte differentiation of primary human pre-adipocyte cultures (oil red-O); format: cell-based; settings: for EC50: Homo sapiens, Adipocyte, human adipocyte differentiation in presence of insulin and dexamethasone
Experimental: Evaluation of the capacity to induce differentiation of primary human pre-adipocyte cultures to adipocytes.
The capacity of Compound VI to induce adipocyte differentiation of primary human pre-adipocyte cultures was evaluated and compared directly to Troglitazone®.
Human subcutaneous preadipocytes were isolated from adipose tissue obtained by liposuction surgery. Preadipocytes were inoculated at high density in preadipocyte medium (DME/F-10, 1:1, (v/v) containing 10% fetal calf serum). Cells were kept in preadipocytic medium overnight for attachment. […] The basal medium, which was used as the negative control, contained DME/F-10, biotin (33 μM), pantothenate (17 μM), insulin (100 nM), and dexamethasone (1 μM). The culture was maintained for 14 days with the compound treatment during the first five days. At the end of the culture, cells were fixed in 5% formalin and stained with oil red-O dye. The dye was extracted by isopropanol and quantitated by measuring the optical density at 500 nm.

melting point: 210 to 213 °C
Compound: c1ccc2nc(COc3ccc(COc4ccc(-c5nnn[nH]5)cc4)cc3)ccc2c1 [Example 11, 5-[4-(4-(2-quinolinylmethyloxy)benzyloxy)phenyl]tetrazole]

binding to the LTD4 receptor (in words) [3]: binds tightly | Kb ([3]; in serum): 88 nM | Kb [3]: 38 nM | Kd [4]: 3 nM | EC50 ([5]; in serum): 1000 to 3000 nM | EC50 ([5]; serum free medium): 100 to 300 nM
Compound: c1ccc(Cc2nn[nH]n2)c(COc2ccc(OCc3ccc4ccccc4n3)cc2)c1 [Compound VI, 5-[2-(4-(2-quinolinylmethoxy)phenoxymethyl)benzyl]tetrazole]
potency as PPAR-γ ligand receptor binder relative to Troglitazone [1]: more potent PPAR-γ ligand receptor binder than Troglitazone® | lowering plasma glucose ([2]; db/db mice, 50 or 150 mg/kg/day mixed with the food, Day 16, FIG. 3A): effective | lowering plasma free fatty acids ([2]; db/db mice, 50 or 150 mg/kg/day mixed with the food, Day 16, FIG. 3B): effective | lowering plasma triglycerides ([2]; db/db mice, 50 or 150 mg/kg/day mixed with the food, Day 16, FIG. 3C): effective | lowering plasma insulin ([2]; db/db mice, 50 or 150 mg/kg/day mixed with the food, Day 16, FIG. 3D): effective | efficacy relative to Troglitazone ([2]; db/db mice, same doses, listed as compound of formula VI): significantly better efficacy; also recorded: more efficacious than Troglitazone® | potency relative to Troglitazone in lowering glucose ([2]; db/db mouse, in-feed administration, FIG. 4): at least three times the potency of Troglitazone® | activity in the differentiation assay ([5]; human preadipocytes): active | potency in the differentiation assay relative to Troglitazone ([5]; human preadipocytes): better potency than Troglitazone®

melting point: 131 to 132 °C
Compound: c1cc(COc2ccc(OCc3ccc4ccccc4n3)cc2)cc(OCc2nnn[nH]2)c1 [Example 32, 5-(3-(4-(2-quinolinylmethyloxy)phenoxymethyl)phenoxymethyl)tetrazole]

melting point: 179 to 181 °C
Compound: c1ccc2nc(COc3ccc(COc4ccc(Cc5nnn[nH]5)cc4)cc3)ccc2c1 [Example 12, 5-[4(4-(2-quinolinylmethyloxy)benzyloxy)benzyl]tetrazole]

melting point: 91 °C (dec.)
Compound: c1cc(OCc2ccc(-c3nnn[nH]3)cc2)cc(OCc2ccc3ccccc3n2)c1 [Example 27, 5-(4-(3-(2quinolinylmethyloxy)phenoxy-methyl)phenyl)tetrazole]

Further lines, the molecule ahead of its results:

Compound: N#Cc1ccc(COc2cccc(OCc3ccc4ccccc4n3)c2)cc1 [Example 26, 4-(3-(2quinolinylmethyloxy)phenoxy-methyl)benzonitrile]
melting point: 112.5 °C

Compound: N#Cc1cccc(OCc2cccc(OCc3ccc4ccccc4n3)c2)c1 [Example 7, 3-[3-(2-quinolinylmethyloxy)benzyloxy]benzonitrile]
melting point: 86 to 87 °C

Compound: c1cc(COc2cccc(-c3nnn[nH]3)c2)cc(OCc2ccc3ccccc3n2)c1 [Example 10, 5-[3-(3-(2-quinolinylmethyloxy)benzyloxy)phenyl]tetrazole]
melting point: 169 to 172 °C

Compound: COC(=O)c1cccc(COc2cccc(OCc3ccc4ccccc4n3)c2)c1 [Example 19, methyl 3-(3-(2-quinolinylmethyloxy)phenoxymethyl)benzoate]
melting point: 93 to 94 °C

Compound: O=C(O)c1cccc(COc2cccc(OCc3ccc4ccccc4n3)c2)c1 [Example 20, 3-(3-(2-quinolinylmethyloxy)phenoxymethyl)benzoic acid]
melting point: 149 to 151 °C

Compound: COc1cc(C(=O)O)ccc1OCc1cccc(OCc2ccc3ccccc3n2)c1 [Example 15, 3-methoxy-4-(3-(2-quinolinylmethyloxy)benzyloxy)benzoic acid]
melting point: 188 to 190 °C

Compound: Cc1c(C)c2c(c(C)c1O)CCC(C)(COc1ccc(CC3SC(=O)NC3=O)cc1)O2 (stereo not shown) [Troglitazone ®, Troglitazone, reference compound]
Kb [3]: > 10000 nM | EC50 ([5]; serum free medium): > 3000 nM

Compound: COC(=O)c1ccc(OCc2cccc(OCc3ccc4ccccc4n3)c2)c(OC)c1 [Example 14, methyl 3-methoxy-4-(3-(2quinolinylmethyloxy)benzyloxy)-benzoate]
melting point: 100 to 101 °C
